Data on four compounds can be found in US10800778B2 (Entasis Therapeutics Limited, priority 2016, dated 2020).

The target in series [1] is TEM-1 (Class A beta-lactamase) (Escherichia coli, UniProt P62593). The experiment in a line: Inhibition of beta-lactamase enzymes (nitrocefin hydrolysis), TEM-1. In kind it is biochemical. To be noted: read-out: Class A TEM-1 60 min IC50, nitrocefin 100 μM. The method, boiled down:
(§1)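 Nitrocefin (100 μM) hydrolysis followed at 490 nm for 1 h in 0.1 M sodium phosphate pH 7.0, 10 mM NaHCO3, 0.005% Triton X-100, with 3-fold inhibitor dilutions from 100 μM to 62.7 pM. Progress curves fitted globally to give kinact/Ki or Ki; percent inhibition from best-fit absorbance fitted with Hill equation.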

Series [2] has as its target OXA-48 (Class D beta-lactamase) (Klebsiella pneumoniae, UniProt Q6XEC0). Kind of series: Inhibition of beta-lactamase enzymes (nitrocefin hydrolysis), OXA-48. Format: biochemical. Conditions: read-out: Class D OXA-48 60 min IC50, nitrocefin 100 μM. Put shortly: as §1
Series [3] relates to C. freundii AmpC, TEM-1, CMY65. The experiment in a line: MIC, CLSI broth microdilution, beta-lactam with or without BLI. Format: cell-based. Conditions: BLI at fixed 4 μg/ml. On the procedure:
(§2) The minimal inhibitory concentration (MIC) values against each organism and drug combination were determined using the Clinical and Laboratory Standards Institute guidelines (CLSI) broth microdilution methodology (CLSI M07-A10). The recommended quality control (QC) bacterial strains E. coli ATCC 25922, E. coli ATCC 35218 and Klebsiella pneumoniae ATCC 700603 were incorporated into each test according to the CLSI guidelines to assure that there was no variation between test dates (CLSI M100-S25). The MICs of these QC strains were within QC range on all test occasions. Drug containing plates were made using the master plate method. A cefpodoxime solution was prepared to 20× concentration and 2-fold serial dilutions were made in cation adjusted Mueller-Hinton Broth. Equal volumes of 20× examplar compounds at a fixed concentration were added to the master plate. 10 uL was stamped into daughter plates using a Tecan EVO robot. Organism suspensions were adjusted to a 0.5 McFarland standard and further diluted to yield a final inoculum between 3×10^5 and 7×10^5 colony-forming units (CFU)/mL. Bacterial inocula were made in sterile, cation adjusted Mueller-Hinton Broth (Beckton Dickinson). An inoculum volume of 1.1× concentration of 90 uL was added to wells (using a Tecan EVO robot). All inoculated microdilution plates were incubated in ambient air at 35° C. for 18-24 hours.
(§3) Following the procedure from Example 103, MICs were determined for several beta-lactams in presence of a fixed concentration (4 μg/mL) of exemplar compounds (Table 3) against 3 Enterobacteriaceae strains.

The subject of a further series is E. coli WT (ATCC 25922). The series is described as above. Format: cell-based. To be noted: BLI at fixed 4 μg/ml. The procedure:
as §2, §3

The test system of series [4] is Klebsiella pneumoniae SHV-18, OXA-2, OKP-6 (ATCC 700603). The series is described as above. In kind it is cell-based. Conditions: BLI at fixed 4 μg/ml; K. pneumoniae ATCC 700603. On the procedure: as §2, §3
Series [5] can be described thus: Rat PK, intravenous and oral. To be noted: for AUC: Sprague-Dawley, plasma, rat, IV 10 mg/kg, analyte = compound administered. Format: in vivo, Sprague-Dawley rats. The procedure: Intravenous rat pharmacokinetics of exemplar compounds were determined in jugular vein cannulated Sprague-Dawley rats (n=3) (Harlan Laboratories, Indianapolis, Ind.) at a dose of 10 mg/kg. Compounds were dissolved and administered intravenously in 0.9% saline, pH 6.5 at a dose volume of 2 mL/kg. […] Oral pharmacokinetic studies were conducted with exemplar compounds at 10 mg/kg equivalents of carboxylic acids. Doses were dissolved and administered orally in 25:75 PEG400: water for injection, pH 4.5 at a dose volume of 10 mL/kg. […] Plasma samples were stored at −80° C. prior to bioanalysis.
Plasma samples were thawed on ice prior to processing. Samples (30 μL) were diluted and proteins precipitated with 180 μL of acetonitrile containing 0.1% formic acid and 250 ng/mL of carbutamide (N1-(butylcarbanoyl)-sulfanilamide, Sigma-Aldrich Catalog # S385433) as an internal standard. Samples were vortexed for 30 seconds, centrifuged at 3400 g for 10 minutes and the supernatant transferred to injection vials.
LC/MS/MS analysis was completed on an AB Sciex QTrap 6500 mass spectrometer in positive ionization mode, coupled to a Schimadzu Nexera LC system. A Waters Atlantis T3 (3 μm, 3.0×50 mm) column was used for chromatographic separation. Injection volume was […] The mobile phase consisted 0.1% formic acid in water (A) and 0.1% formic acid in acetonitrile (B), with a gradient of 2-98% B:A over two minutes.
Plasma concentration vs. time profiles following intravenous (IV) administration and oral (PO) administration of exemplar compounds were analyzed by non-compartment analysis using WinNonLin 6.4.

The nature of series [6]: Stability in pH 7.4 buffer (no enzyme). Format: physicochemical. Conditions: buffer, read-out: T1/2 pH 7.4 Buffer. Put shortly:
(§4)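 Esters at 10 μM incubated at 37 °C with 0.8 mg/mL S9 (human intestinal without PMSF, rat liver or rat intestinal) or no enzyme, in 100 mM HEPES pH 7.4; sampled 0–60 min. LC-MS/MS tracked ester and hydrolysed active; first-order T1/2 from ester disappearance.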

Series [7] in a line: Stability/conversion of esters in rat intestinal S9. In kind it is in vitro ADME. To be noted: s9, pH 7.4, read-out: T1/2 Rat Intestinal S9. The method, boiled down:
as §4

Series [8] in a line: Stability/conversion of esters in rat liver S9. Format: in vitro ADME. Conditions: s9, pH 7.4, read-out: T1/2 Rat Liver S9. Put shortly: as §4
The nature of series [9]: Stability/conversion of esters in human intestinal S9. In kind it is in vitro ADME. Conditions: s9, pH 7.4, read-out: T1/2 Human Intestinal S9. Put shortly: as §4
Series [10] is described as follows: Stability/conversion of esters in human liver S9. In kind it is in vitro ADME. Conditions: s9, pH 7.4, read-out: T1/2 Human Liver S9. Put shortly: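 Ester test compounds (10 μM) were incubated at 37° C with human liver S9 at 0.8 mg/mL in 100 mM HEPES buffer, pH 7.4. Aliquots taken from 0 to 60 min were quenched in acetonitrile containing carbutamide internal standard, centrifuged, and analyzed by LC-MS/MS MRM; first-order half-lives came from loss of the parent ester.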

Series [11] has as its system E. coli ARC2687 (AmpC, CTX-M-14). The experiment in a line: Mouse neutropenic thigh infection model, oral efficacy of cefpodoxime proxetil with Example 35. Format: in vivo. On the procedure: The oral in vivo efficacy of Example 35 was evaluated in combination with cefpodoxime proxetil in a mouse neutropenic thigh infection model versus a relevant clinical isolate. […] CD-1 mice (Charles River, Wilmington US) were housed in shoebox type cages with contact bedding and acclimated to the facility for a minimum of 2 days prior to use. The animal room was maintained at 70° F., with 50+/−10% relative humidity and a 12-hour light/dark cycle. The study was conducted using an IACUC-approved protocol in accordance with Title 9 of the Code of Federal Regulations. Animals were rendered neutropenic with two intraperitoneal doses of cyclophosphamide (150 mg/kg—4 days and 100 mg/kg—1 day prior to infection (Gerber et al. (1983) J Infect Dis 147(5); 910-917)). Animals were infected via an intramuscular challenge of ˜1×10^6 CFU administered within 100 μL of 0.9% saline. The inoculum was prepared from a 25 mL overnight culture of E. coli ARC 2687 in tryptic soy broth media. Following an OD600 determination, the inoculum was diluted in 0.9% saline to a concentration of […] prior to inoculation into the left and right thigh. Oral therapy with cefpodoxime proxetil alone and in combination with Example 35 was initiated 2 hours post bacterial challenge. Doses were suspended in 0.5% HPMC/0.1% Tween 80 and administered by oral gavage at a dose volume of 10 mL/kg. A terminal endpoint was obtained at 24 hr to determine bacterial counts in thigh tissue (CFU/gm). Animals were ethically euthanized, thighs were asceptically removed, weighed and homogenized in 1 mL of saline. Bacterial burden enumeration of tissue homogenate was performed by serial dilution on tryptic soy agar plates which were incubated overnight at 37° C. prior to colony (CFU) counting. The lower limit of detection was ˜2.6 log10 CFU/gm of tissue.

Counter-ions that a name gives are not always drawn.

Chain of TEM-1 (Class A beta-lactamase) (P62593 whole entry, looked up, species assumed): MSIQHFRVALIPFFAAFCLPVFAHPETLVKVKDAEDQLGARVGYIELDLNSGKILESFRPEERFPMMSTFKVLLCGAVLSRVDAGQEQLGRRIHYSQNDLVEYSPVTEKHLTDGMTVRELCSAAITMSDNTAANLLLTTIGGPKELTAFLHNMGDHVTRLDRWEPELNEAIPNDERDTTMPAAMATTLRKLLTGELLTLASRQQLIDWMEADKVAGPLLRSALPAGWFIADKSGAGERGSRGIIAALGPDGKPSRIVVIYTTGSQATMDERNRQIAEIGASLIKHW
Chain of OXA-48 (Class D beta-lactamase) (Q6XEC0 whole entry, looked up, species assumed): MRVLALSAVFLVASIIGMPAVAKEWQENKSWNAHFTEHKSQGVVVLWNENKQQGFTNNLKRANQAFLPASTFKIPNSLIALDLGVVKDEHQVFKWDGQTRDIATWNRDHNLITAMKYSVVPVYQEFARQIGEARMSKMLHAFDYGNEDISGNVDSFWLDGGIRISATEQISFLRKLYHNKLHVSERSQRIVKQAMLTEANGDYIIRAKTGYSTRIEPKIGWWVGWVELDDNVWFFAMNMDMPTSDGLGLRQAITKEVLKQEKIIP

What is called IC50 is the midpoint of a concentration-inhibition curve. One may read the AUC as concentration integrated over time. A higher AUC goes with more exposure. For the compound `CC1=C[C@@H]2CN(C(=O)N2O[C@@H](F)C(=O)O)[C@@H]1C(N)=O` [Example 3, (2S)-{[(2S,5R)-2-carbamoyl-3-methyl-7-oxo-1,6-diazabicyclo[3.2.1]oct-3-en-6-yl]oxy}(fluoro)ethanoic acid lithium salt], the IC50 in series [1] is 19 nM. Further, in [2], the IC50 turned out to be 15 nM. Moreover, in [3], the “MIC of cefixime in presence of BLI” value was found to be 1 µg/mL, the “MIC of cefuroxime in presence of BLI” value worked out at 1 µg/mL, the “MIC of faropenem in presence of BLI” value stood at 0.25 µg/mL and the “MIC of tebipenem in presence of BLI” value was at most 0.06 µg/mL. In addition, in the series with E. coli WT (ATCC 25922), the “MIC of cefixime in presence of BLI” value came to 0.125 µg/mL, the “MIC of cefuroxime in presence of BLI” value turned out to be 0.02 µg/mL, the “MIC of faropenem in presence of BLI” value is 0.25 µg/mL and the “MIC of tebipenem in presence of BLI” value is at most 0.06 µg/mL. Also, in series [4], the “MIC of cefixime in presence of BLI” value is 0.5 µg/mL, the “MIC of faropenem in presence of BLI” value worked out at 2 µg/mL and the “MIC of tebipenem in presence of BLI” value turned out to be 0.125 µg/mL. The compound also yielded an AUC in series [5] of 34.9 µM·h.

Take `CC1=C[C@@H]2CN(C(=O)N2O[C@H](F)C(=O)O)[C@@H]1C(N)=O` [Example 4, (2R)-{[(2S,5R)-2-carbamoyl-3-methyl-7-oxo-1,6-diazabicyclo[3.2.1]oct-3-en-6-yl]oxy}(fluoro)ethanoic acid lithium salt]: the results for the IC50 in [1] and in series [2] were 1.35 nM and 15 nM, respectively. Moreover, the “MIC of cefixime in presence of BLI” value (in series [3]; in the series on E. coli WT (ATCC 25922); in series [4]) was at most 0.06 µg/mL throughout. Further, the “MIC of cefuroxime in presence of BLI” value (in [3]; in the series with E. coli WT (ATCC 25922)) was 0.02 µg/mL each time. In addition, the “MIC of faropenem in presence of BLI” value in series [3] was at most 0.06 µg/mL; in the series on E. coli WT (ATCC 25922), at most 0.06 µg/mL; in series [4], 1 µg/mL. For the same compound, the “MIC of tebipenem in presence of BLI” value (in series [3]; in the series with E. coli WT (ATCC 25922); in series [4]) was at most 0.06 µg/mL each time. Further, the AUC in [5] was found to be 19.1 µM·h.

In the case of `CC1=C[C@@H](C(N)=O)N2C[C@@H]1N(O[C@@H](F)C(=O)O)C2=O` [Example 34, (2S)-2-(((2S,5R)-2-carbamoyl-4-methyl-7-oxo-1,6-diazabicyclo[3.2.1]oct-3-en-6-yl)oxy)-2-fluoroacetic acid lithium salt], the IC50 in [1] was determined as 26 nM. Also, the IC50 in series [2] worked out at 19 nM. In addition, in series [3], the “MIC of cefixime in presence of BLI” value is at most 0.06 µg/mL, the “MIC of cefuroxime in presence of BLI” value is below 0.03125 µg/mL, the “MIC of faropenem in presence of BLI” value is at most 0.06 µg/mL and the “MIC of tebipenem in presence of BLI” value is at most 0.06 µg/mL. In the series with E. coli WT (ATCC 25922), the “MIC of cefixime in presence of BLI” value was at most 0.06 µg/mL, the “MIC of cefuroxime in presence of BLI” value was below 0.03125 µg/mL, the “MIC of faropenem in presence of BLI” value is at most 0.06 µg/mL and the “MIC of tebipenem in presence of BLI” value is at most 0.06 µg/mL. For the same compound, in series [4], the “MIC of cefixime in presence of BLI” value was at most 0.06 µg/mL, the “MIC of cefuroxime in presence of BLI” value worked out at 1 µg/mL, the “MIC of faropenem in presence of BLI” value came to 0.5 µg/mL and the “MIC of tebipenem in presence of BLI” value was at most 0.06 µg/mL. In series [5], this compound yielded an AUC of 16.1 µM·h.

Take `CC1=C[C@@H](C(N)=O)N2C[C@@H]1N(O[C@H](F)C(=O)OC(C)C)C2=O` [Example 35, (2R)-isopropyl 2-(((2S,5R)-2-carbamoyl-4-methyl-7-oxo-1,6-diazabicyclo[3.2.1]oct-3-en-6-yl)oxy)-2-fluoroacetate]: the half-life at 10 μM was determined as 3.1 h in series [6]; 4 h in series [7]; 0.533 h in series [8]; 2.72 h in series [9]; 0.65 h in [10]. In addition, the “Circulating concentrations of the ester in plasma” value in [5] (rat plasma, LC/MS/MS) is reported as “Rapid hydrolysis precluded satisfactory analysis of circulating concentrations”. Further, the “maximal kill relative to initiation of therapy” value in [11] (50 mg/kg cefpodoxime proxetil + 100 mg/kg Example 35 q6h, oral, 24 hr) is −0.75 log10 CFU/gm. In addition, the log10CFU/gm thigh in [11] (Example 35 alone 10 mg/kg PO/q6h, mouse neutropenic thigh, E. coli ARC2687) amounted to 9.56 log10CFU/gm thigh. Besides, the “CFU Change from 26 hr” value in series [11] (Example 35 alone 10 mg/kg PO/q6h, relative to 26 hr growth control) is −1.30 log10 CFU/gm. For the same compound, in [11] (Example 35 alone 10 mg/kg PO/q6h, relative to initiation of therapy), the “CFU Change from 2 hr” value is reported as “+3.29 log10 CFU/gm”. Besides, in series [11] (Example 35 alone at 10 mg/kg q6h, oral, neutropenic CD-1 mice), the “growth of bacterial burden in thighs after 24 hours of therapy” value is reported as “greater than 3 log10 CFU/gm”. In series [11] (in combination with cefpodoxime proxetil 50 mg/kg q6h, oral), the “effect of increasing dose on bacterial burden” value is given as “dose dependent reduction of bacterial burden”.
